Test results as given in BindingDB's records for doi:10.1016/j.bmcl.2004.02.008 (Astrazeneca, 2004).

Biological target: Cyclin-dependent kinase 2/G1/S-specific cyclin-E1 (Homo sapiens, UniProt P24941)
Assay: CDK Assay
Conditions: pH 7; 22 °C
Method: The kinase activity was assayed using an in vitro scintillation proximity assay (SPA) for measuring incorporation of [gamma-33P] ATP into GST-Rb.

Row | Structure (SMILES) | IC50
1 | CNS(=O)(=O)c1ccc(Nc2nccc(-c3cnc4cccnn34)n2)cc1 [4-[(4-{imidazo[1,2-a]pyridazin-3-yl}pyrimidin-2-yl)amino]-N-methylbenzene-1-sulfonamide] | < 3 nM
2 | COCCNS(=O)(=O)c1ccc(Nc2nccc(-c3cnc4ccc(Br)cn34)n2)cc1 [4-[(4-{6-bromoimidazo[1,2-a]pyridin-3-yl}pyrimidin-2-yl)amino]-N-(2-methoxyethyl)benzene-1-sulfonamide] | < 3 nM
3 | NS(=O)(=O)c1ccc(Nc2nccc(-c3cnc4cccnn34)n2)cc1 [4-[(4-{imidazo[1,2-a]pyridazin-3-yl}pyrimidin-2-yl)amino]benzene-1-sulfonamide] | < 3 nM
4 | CN(C)CCCNS(=O)(=O)c1ccc(Nc2nccc(-c3cnc4cccnn34)n2)cc1 [N-[3-(dimethylamino)propyl]-4-[(4-{imidazo[1,2-a]pyridazin-3-yl}pyrimidin-2-yl)amino]benzene-1-sulfonamide] | < 3 nM
5 | CN(C)CCNS(=O)(=O)c1ccc(Nc2nccc(-c3cnc4cccnn34)n2)cc1 [N-[2-(dimethylamino)ethyl]-4-[(4-{imidazo[1,2-a]pyridazin-3-yl}pyrimidin-2-yl)amino]benzene-1-sulfonamide] | 8 nM
6 | c1ccc(Nc2nccc(-c3cnc4cccnn34)n2)cc1 [4-{imidazo[1,2-a]pyridazin-3-yl}-N-phenylpyrimidin-2-amine] | 1000 nM
7 | COCCNS(=O)(=O)c1ccc(Nc2nccc(-c3cnc4cccnn34)n2)cc1 [4-[(4-{imidazo[1,2-a]pyridazin-3-yl}pyrimidin-2-yl)amino]-N-(2-methoxyethyl)benzene-1-sulfonamide] | < 3 nM
8 | COCCN(C)S(=O)(=O)c1ccc(Nc2nccc(-c3cnc4cccnn34)n2)cc1 [4-[(4-{imidazo[1,2-a]pyridazin-3-yl}pyrimidin-2-yl)amino]-N-(2-methoxyethyl)-N-methylbenzene-1-sulfonamide] | 600 nM
9 | CCSc1ccc2ncc(-c3ccnc(Nc4ccc(S(=O)(=O)NCCOC)cc4)n3)n2c1 [4-({4-[6-(ethylsulfanyl)imidazo[1,2-a]pyridin-3-yl]pyrimidin-2-yl}amino)-N-(2-methoxyethyl)benzene-1-sulfonamide] | < 3 nM
10 | COCCNS(=O)(=O)c1ccc(Nc2nccc(-c3cnc4ccc(OC)nn34)n2)cc1 [N-(2-methoxyethyl)-4-[(4-{6-methoxyimidazo[1,2-a]pyridazin-3-yl}pyrimidin-2-yl)amino]benzene-1-sulfonamide] | 600 nM
11 | COCCNS(=O)(=O)c1ccc(Nc2ncc(Sc3ccccc3)c(-c3cnc4ccccn34)n2)cc1 [4-[(4-{imidazo[1,2-a]pyridin-3-yl}-5-(phenylsulfanyl)pyrimidin-2-yl)amino]-N-(2-methoxyethyl)benzene-1-sulfonamide] | > 10000 nM
12 | COCCNS(=O)(=O)c1ccc(Nc2nccc(-c3c(C)nc4cccnn34)n2)cc1 [N-(2-methoxyethyl)-4-[(4-{2-methylimidazo[1,2-a]pyridazin-3-yl}pyrimidin-2-yl)amino]benzene-1-sulfonamide] | 3 nM
13 | COCCNS(=O)(=O)c1ccc(Nc2nccc(-c3cnc4ccc(C#N)cn34)n2)cc1 [4-[(4-{6-cyanoimidazo[1,2-a]pyridin-3-yl}pyrimidin-2-yl)amino]-N-(2-methoxyethyl)benzene-1-sulfonamide] | < 3 nM
